From patent US5965717A, “Organic pigments from twisted benzidines” (North Carolina State University, priority 1997, dated 1999)

Tests used:
Salmonella = conditions: cited from earlier work
[1] = system: Salmonella typhimurium strains, TA98 and TA100; test: Ames test (Salmonella mammalian microsome mutagenicity assay), with and without rat liver S9; assay type: cell-based; conditions: presence and absence of metabolic activation (rat liver S9)
Text: (§1) The most widely accepted mutagenicity screening test procedure for amines is the Salmonella mammalian microsome mutagenicity assay developed by Ames et al. (Mutat. Res., 31 (1975) 347), hereinafter referred to as the Ames test. Subsequently, a modification of the Ames test was introduced by Prival et al. (Mutat. Res., 97 (2) (1982) 103) specifically for evaluating the mutagenicity of azo compounds, hereinafter referred to as the Prival modification. For a general discussion of mutagenicity as it pertains to colored materials, see, for instance, Freeman et al., Genotoxicity of Azo Dyes: Bases and Implications, Physico-Chemical Principles of Color Chemistry, Advances in Color Chemistry Series, Vol. 4, ed. by A. T. Peters and H. S. Freeman (Blackie Academic Press: Glasgow, 1996) 254-291; Freeman et al., Dyes Pigm. 8 (6) (1987) 431-47; and Freeman et al., CHEMTECH, July (1991), 438-445.
(§2) Mutagenicity testing of the pure derivatives of benzidine was performed using the standard Ames test, as described by Ames et al. (Mutat. Res., 31 (1975) 347). Mutagenicity testing of the various pigments was performed using the standard Ames test, and also using the Prival modification, as described by Prival et al. (Mutat. Res., 97 (2) (1982) 103).
(§3) More particularly, two Salmonella typhimurium strains, TA98 and TA100, were employed for mutagenicity testing. All benzidine derivatives and the pigments made therefrom were evaluated in the presence and absence of metabolic activation. In the Ames test, metabolic activation was achieved using rat liver S9, whereas hamster liver S9 was employed in the Prival modification. A mutagenic response was recorded for a test compound if the number of revertant colonies counted was more than twice the number of spontaneous revertant colonies formed in the absence of the test compound. A nonmutagenic response (Ames negative or Prival negative) was recorded when the number of revertant colonies counted was less than twice the number of spontaneous revertant colonies.

[2] = system: Salmonella typhimurium strains, TA98 and TA100; test: Prival modification of the Ames test, with and without hamster liver S9; assay type: cell-based; conditions: presence and absence of metabolic activation (hamster liver S9)
Text: as §1, §2, §3

[3] = in N,N-dimethylformamide (DMF); cited from earlier work

| Structure (SMILES) | mutagenicity in the Ames test (prior art) (Salmonella) | mutagenicity in the Ames test [1] | mutagenicity in the Prival modification [2] | λmax [3] |
| --- | --- | --- | --- | --- |
| Nc1ccc(-c2ccc(N)c(Cl)c2)cc1Cl [3,3'-dichlorobenzidine] | mutagenic |  |  |  |
| CCCOc1cc(-c2cc(OCCC)c(N=CC3C(=O)NC(=S)NC3=O)cc2C)c(C)cc1N=CC1C(=O)NC(=S)NC1=O [Pigment 93] |  | negative (the number of revertant colonies counted was less than twice the number of spontaneous revertant colonies) | negative (the number of revertant colonies counted was less than twice the number of spontaneous revertant colonies) |  |
| CCCOc1cc(-c2cc(OCCC)c(NN=C(C(C)=O)C(=O)Nc3ccccc3)cc2C)c(C)cc1NN=C(C(C)=O)C(=O)Nc1ccccc1 [Pigment 95] |  | negative (the number of revertant colonies counted was less than twice the number of spontaneous revertant colonies) | negative (the number of revertant colonies counted was less than twice the number of spontaneous revertant colonies) |  |
| Cc1cc(-c2ccc(N)c(C)c2)ccc1N [3,3'-dimethylbenzidine] | mutagenic |  |  |  |
| COc1ccccc1NN=C(C(C)=O)C(=O)Nc1ccccc1 [compound 2] |  |  |  | 392 nm |
| Cc1cc(-c2cc(C)c(N)c(C)c2)cc(C)c1N [3,5,3',5'-tetramethylbenzidine] | nonmutagenic |  |  |  |
| COc1cc(-c2ccc(NN=C(C(C)=O)C(=O)Nc3ccccc3)c(OC)c2)ccc1NN=C(C(C)=O)C(=O)Nc1ccccc1 [compound 1] |  |  |  | 445 nm |
| CCCOc1cc(-c2cc(OCCC)c(N)cc2OC)c(OC)cc1N [compound 26, 2,2'-dimethoxy-5,5'-dipropoxybenzidine] |  | Ames negative (the number of revertant colonies counted was less than twice the number of spontaneous revertant colonies) |  |  |
| CCCOc1cc(-c2cc(OCCC)c(NN=C(C(C)=O)C(=O)Nc3ccc4[nH]c(=O)[nH]c4c3)cc2C)c(C)cc1NN=C(C(C)=O)C(=O)Nc1ccc2[nH]c(=O)[nH]c2c1 [Pigment 113] |  | negative (the number of revertant colonies counted was less than twice the number of spontaneous revertant colonies) | negative (the number of revertant colonies counted was less than twice the number of spontaneous revertant colonies) |  |
| CCCOc1cc(-c2cc(OCCC)c(N)cc2C)c(C)cc1N [compound 12, 2,2'-dimethyl-5,5'-dipropoxybenzidine] |  | Ames negative (the number of revertant colonies counted was less than twice the number of spontaneous revertant colonies) |  |  |
| CCCOc1cc(-c2cc(OCCC)c(NN=C(C(C)=O)C(=O)Nc3ccccc3OC)cc2OC)c(OC)cc1NN=C(C(C)=O)C(=O)Nc1ccccc1OC [Pigment 98] |  | negative (the number of revertant colonies counted was less than twice the number of spontaneous revertant colonies) | negative (the number of revertant colonies counted was less than twice the number of spontaneous revertant colonies) |  |
| CCCOc1cc(-c2cc(OCCC)c(NN=C3C(=O)N(c4ccccc4)N=C3C)cc2C)c(C)cc1NN=C1C(=O)N(c2ccccc2)N=C1C [Pigment 108] |  | negative (the number of revertant colonies counted was less than twice the number of spontaneous revertant colonies) | negative (the number of revertant colonies counted was less than twice the number of spontaneous revertant colonies) |  |
| CCCOc1cc(-c2cc(OCCC)c(NN=C(C(C)=O)C(=O)Nc3ccccc3OC)cc2Cl)c(Cl)cc1NN=C(C(C)=O)C(=O)Nc1ccccc1OC [Pigment 107] |  | negative (the number of revertant colonies counted was less than twice the number of spontaneous revertant colonies) | negative (the number of revertant colonies counted was less than twice the number of spontaneous revertant colonies) |  |
| COc1cc(-c2ccc(N)c(OC)c2)ccc1N [3,3'-dimethoxybenzidine] | mutagenic |  |  |  |
